Results as given in PubChem BioAssay AID2060891 (Molecular Pharmacology Branch, DTP, NCI, 2025).

Test system: K98450-129-R-PDC complex spheroid growth, percent test/control
Test: Anticancer human tumor K98450-129-R-PDC patient-derived colon adenocarcinoma cell line growth inhibition [RAS]
Details: for IC50: curve of first compound; for viability, T/C: stronger effect = lower value
In short: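 Tumour cells grown as complex spheroids with HUVEC endothelial cells and mesenchymal stem cells, treated with RAS pathway inhibitor combinations. Each agent spans half-log steps from near clinical Cmax, or 10 microM where Cmax is unknown.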

[1] = second compound 0.000949 µM, first compound 0.0316 µM
[2] = second compound 0.000949 µM, first compound 0.1 µM
[3] = second compound 0.000949 µM, first compound 0.316 µM
[4] = second compound 0.000949 µM, first compound 1 µM
[5] = second compound 0.003 µM, first compound 0.0316 µM
[6] = second compound 0.003 µM, first compound 0.1 µM
[7] = second compound 0.003 µM, first compound 0.316 µM
[8] = second compound 0.003 µM, first compound 1 µM
[9] = second compound 0.00949 µM, first compound 0.0316 µM
[10] = second compound 0.00949 µM, first compound 0.1 µM
[11] = second compound 0.00949 µM, first compound 0.316 µM
[12] = second compound 0.00949 µM, first compound 1 µM
[13] = second compound 0.03 µM, first compound 0.0316 µM
[14] = second compound 0.03 µM, first compound 0.1 µM
[15] = second compound 0.03 µM, first compound 0.316 µM
[16] = second compound 0.03 µM, first compound 1 µM
[17] = second compound 0.0949 µM, first compound 0.0316 µM
[18] = second compound 0.0949 µM, first compound 0.1 µM
[19] = second compound 0.0949 µM, first compound 0.316 µM
[20] = second compound 0.0949 µM, first compound 1 µM
[21] = second compound 0.3 µM, first compound 0.0316 µM
[22] = second compound 0.3 µM, first compound 0.1 µM
[23] = second compound 0.3 µM, first compound 0.316 µM
[24] = second compound 0.3 µM, first compound 1 µM
[25] = second compound 0.000949 µM, first compound 3.16 µM
[26] = second compound 0.000949 µM, first compound 10 µM
[27] = second compound 0.003 µM, first compound 3.16 µM
[28] = second compound 0.003 µM, first compound 10 µM
[29] = second compound 0.00949 µM, first compound 3.16 µM
[30] = second compound 0.00949 µM, first compound 10 µM
[31] = second compound 0.03 µM, first compound 3.16 µM
[32] = second compound 0.03 µM, first compound 10 µM
[33] = second compound 0.0949 µM, first compound 3.16 µM
[34] = second compound 0.0949 µM, first compound 10 µM
[35] = second compound 0.3 µM, first compound 3.16 µM
[36] = second compound 0.3 µM, first compound 10 µM
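Note: spheroids exposed to agents for seven days before the viability readout.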
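Throughout, for viability, T/C: luminescence used as a proxy for viable cell amount.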

Compound `CCN1CCN(Cc2ccc(Nc3ncc(F)c(-c4cc(F)c5nc(C)n(C(C)C)c5c4)n3)nc2)CC1` + CCn1c(-c2cc(N3CCN(C)CC3)cnc2C(C)OC)c2c3cc(ccc31)-c1csc(n1)CC(NC(=O)C1CC1C)C(=O)N1CCCC(N1)C(=O)OCC(C)(C)C2 has an IC50 (second compound 0.000949 µM) of over 1000 nM, an IC50 (second compound 0.003 µM) of 723 nM and an IC50 (second compound 0.00949 µM) of 73.2 nM. For the same compound, the IC50 (second compound 0.03 µM) was 23.7 nM, the IC50 (second compound 0.0949 µM) was under 3.16 nM and the IC50 (second compound 0.3 µM) was under 3.16 nM. The viability, T/C (second compound 0.000949 µM, first compound 0.00316 µM) was 75.8%, the viability, T/C (second compound 0.000949 µM, first compound 0.01 µM) was 83% and the viability, T/C [1] was 90.9%. It also gave a viability, T/C [2] of 80.8%, a viability, T/C [3] of 65.6% and a viability, T/C [4] of 65.6%. For the same compound, the viability, T/C (second compound 0.003 µM, first compound 0.00316 µM) was 95.1%, the viability, T/C (second compound 0.003 µM, first compound 0.01 µM) was 85.8% and the viability, T/C [5] was 72.5%. The viability, T/C [6] was 71%, the viability, T/C [7] was 54.1% and the viability, T/C [8] was 47.6%. It also gave a viability, T/C (second compound 0.00949 µM, first compound 0.00316 µM) of 79.8%, a viability, T/C (second compound 0.00949 µM, first compound 0.01 µM) of 64.1% and a viability, T/C [9] of 59.2%. It also gave a viability, T/C [10] of 47.7%, a viability, T/C [11] of 38.6% and a viability, T/C [12] of 33.2%. It also gave a viability, T/C (second compound 0.03 µM, first compound 0.00316 µM) of 49.8%, a viability, T/C (second compound 0.03 µM, first compound 0.01 µM) of 51.8% and a viability, T/C [13] of 49.7%. The viability, T/C [14] was 27.2%, the viability, T/C [15] was 24.4% and the viability, T/C [16] was 25.9%. The viability, T/C (second compound 0.0949 µM, first compound 0.00316 µM) was 18.8%, the viability, T/C (second compound 0.0949 µM, first compound 0.01 µM) was 18.5% and the viability, T/C [17] was 17.3%. It also gave a viability, T/C [18] of 14.1%, a viability, T/C [19] of 18.4% and a viability, T/C [20] of 22.8%. It also gave a viability, T/C (second compound 0.3 µM, first compound 0.00316 µM) of 10.8%, a viability, T/C (second compound 0.3 µM, first compound 0.01 µM) of 13.6% and a viability, T/C [21] of 11.3%. It also gave a viability, T/C [22] of 12.7%, a viability, T/C [23] of 16.3% and a viability, T/C [24] of 23.1%.

`Cc1nc(N2CCC3(CC2)COC(C)C3N)c(CO)nc1Sc1ccnc(N)c1Cl` (stereo unspecified) + CCn1c(-c2cc(N3CCN(C)CC3)cnc2C(C)OC)c2c3cc(ccc31)-c1csc(n1)CC(NC(=O)C1CC1C)C(=O)N1CCCC(N1)C(=O)OCC(C)(C)C2 showed an IC50 (second compound 0.000949 µM) of 1400 nM, an IC50 (second compound 0.003 µM) of 644 nM and an IC50 (second compound 0.00949 µM) of 224 nM. It also gave an IC50 (second compound 0.03 µM) of under 31.6 nM, an IC50 (second compound 0.0949 µM) of under 31.6 nM and an IC50 (second compound 0.3 µM) of under 31.6 nM. For the same compound, the viability, T/C [1] was 99.3%, the viability, T/C [2] was 71.3% and the viability, T/C [3] was 80.2%. For the same compound, the viability, T/C [4] was 55.4%, the viability, T/C [25] was 35.8% and the viability, T/C [26] was 16.7%. For the same compound, the viability, T/C [5] was 89%, the viability, T/C [6] was 64.3% and the viability, T/C [7] was 61.8%. It also gave a viability, T/C [8] of 51.8%, a viability, T/C [27] of 22% and a viability, T/C [28] of 11%. It also gave a viability, T/C [9] of 64.3%, a viability, T/C [10] of 53.4% and a viability, T/C [11] of 48.2%. For the same compound, the viability, T/C [12] was 19.5%, the viability, T/C [29] was 8.78% and the viability, T/C [30] was 7.55%. For the same compound, the viability, T/C [13] was 38.6%, the viability, T/C [14] was 39.2% and the viability, T/C [15] was 14.5%. The viability, T/C [16] was 8.49%, the viability, T/C [31] was 8.08% and the viability, T/C [32] was 6.16%. The viability, T/C [17] was 15.2%, the viability, T/C [18] was 13.1% and the viability, T/C [19] was 10.9%. The viability, T/C [20] was 9.07%, the viability, T/C [33] was 6.17% and the viability, T/C [34] was 4%. For the same compound, the viability, T/C [21] was 10.7%, the viability, T/C [22] was 11.6% and the viability, T/C [23] was 9.12%. The viability, T/C [24] was 7.56%, the viability, T/C [35] was 6.68% and the viability, T/C [36] was 5.63%.

Compound `NC1c2ccccc2OC12CCN(c1cnc3c(N4CCCc5ncccc54)n[nH]c3n1)CC2` (stereo unspecified) + CCn1c(-c2cc(N3CCN(C)CC3)cnc2C(C)OC)c2c3cc(ccc31)-c1csc(n1)CC(NC(=O)C1CC1C)C(=O)N1CCCC(N1)C(=O)OCC(C)(C)C2 has an IC50 (second compound 0.000949 µM) of 116 nM, an IC50 (second compound 0.003 µM) of 63.1 nM and an IC50 (second compound 0.00949 µM) of under 31.6 nM. The IC50 (second compound 0.03 µM) was under 31.6 nM, the IC50 (second compound 0.0949 µM) was under 31.6 nM and the IC50 (second compound 0.3 µM) was under 31.6 nM. It also gave a viability, T/C [1] of 85.1%, a viability, T/C [2] of 54.5% and a viability, T/C [3] of 20.4%. For the same compound, the viability, T/C [4] was 8.29%, the viability, T/C [25] was 8.32% and the viability, T/C [26] was 8.57%. The viability, T/C [5] was 69.2%, the viability, T/C [6] was 37.2% and the viability, T/C [7] was 8.71%. The viability, T/C [8] was 5.81%, the viability, T/C [27] was 5.89% and the viability, T/C [28] was 8.17%. The viability, T/C [9] was 44.1%, the viability, T/C [10] was 11.7% and the viability, T/C [11] was 6.79%. For the same compound, the viability, T/C [12] was 5.19%, the viability, T/C [29] was 5.86% and the viability, T/C [30] was 7.32%. For the same compound, the viability, T/C [13] was 15.4%, the viability, T/C [14] was 9.39% and the viability, T/C [15] was 6.76%. For the same compound, the viability, T/C [16] was 6.09%, the viability, T/C [31] was 6.31% and the viability, T/C [32] was 7.21%. For the same compound, the viability, T/C [17] was 10.1%, the viability, T/C [18] was 7.59% and the viability, T/C [19] was 5.43%. The viability, T/C [20] was 4.79%, the viability, T/C [33] was 4.55% and the viability, T/C [34] was 7.03%. The viability, T/C [21] was 9.29%, the viability, T/C [22] was 7.37% and the viability, T/C [23] was 5.01%. The viability, T/C [24] was 4.13%, the viability, T/C [35] was 4.98% and the viability, T/C [36] was 5.88%.
